Here are results for one compound from patent publication US20160199463A1, “HDAC2 DEFENDS VASCULAR ENDOTHELIUM FROM INJURY” (The Johns Hopkins University, priority 2014, published 2016).

Each structure is given as a SMILES string. pIC50: −log10 of the molar value.

What is called pIC50 is −log10 of the IC50, conventionally taken in molar units.

In test [1] the test system is arginase activity in HAECs. Put plainly: Arginase activity assay (urea production) in HAEC lysates. The format is cell-based, human. How it is done: HAEC were lysed using RIPA buffer (50 mM of Tris.HCl, pH 7.5, 0.1 mM EDTA, 0.1% Triton X-100, and protease inhibitor), and centrifuged for 30 min at 14,000 g at 4° C. 50 μL (50-100 μg) of supernatant was added to 75 μl of 10 mM MnCl2 made in Tris-HCl (50 mM, pH 7.5) and heat activated by incubating at 55-60° C. for 10 min. 50 μL of L-Arginine that was prepared in 300 mM Tris-HCL, pH 9.7 were then added to the activated cell lysates to achieve final concentrations of 150 mM and incubated at 37° C. for 3 hrs with shaking. The reaction was stopped by adding 400 μL of an acid solution (H2SO4: H3PO4: H20=1:3:7). For colorimetric determination of urea, α-isonitrosopropiophenone (25 μL, 9% in ethanol) was added and further heated at 100° C. for 45 min. Samples were allowed to cool at room temperature in the dark for 10 min and urea concentration was determined by measuring absorbance at 550 nm using a spectrophotometer.

In a further test the test system is Arg2 mRNA. Kind of test: Arg2 mRNA in isolated mice aorta (real-time PCR). The conditions noted are these: TSA 200 nmol/L, 18 hours. Format: cell-based, mouse. Here is the method:
Total RNA was extracted from segments of mice aortas and HAEC using Trizol and PureLink (Invitrogen). RNA was then reverse transcribed with oligo dT primers to obtain cDNA and quantitative real time PCR (Applied Biosystems) was performed using SYBR Green Supermix mix (Applied Biosystems) whereas semiquantitative RTPCR was performed using conventional Biorad PCR machine and the following primer sets:
Real Time PCR data are expressed as “fold change”, which is calculated as 2-ΔΔCt.
On the technique in general: Real-time PCR tracks product formation cycle by cycle.

Another test has as its system Arg2 ubiquitination. Put plainly: Arg2 ubiquitination in HAECs (immunoprecipitation). The conditions noted are these: preincubation with TSA; MG132 10 μmol/L in all groups. The format is cell-based, human. Here is the method: After 48 hrs of HAEC cells transfection, cells were lysed in ice cold RIPA lysis buffer consisting of 20 mM Tris-HCl at pH 7.5, 150 mM NaCl, 1 mM EDTA, 1 mM EGTA, 1% NP40, 1% sodium deoxycholate, 1 mM Na3VO4, 2.5 mM sodium pyrophosphate, 1 mM 3-glycerophosphate, 1 μg/mL leupeptin, and a 1:1000 diluted protease inhibitor cocktail (Sigma). For immunoprecipitation studies, whole cell lysate lysates were centrifuged at 14,000×g and supernatants were precleared by incubation with Protein A/G-agarose beads for 2 h at 4° C. with rocking. Agarose beads were then pelleted by centrifugation at 1,000×g. FLAG-Arg2 in precleared lysates were immunoprecipitated by incubation overnight at 4° C. with rocking following addition of anti-FLAG antibody (10 μl). Immune complexes were eluted in 2×SDS sample buffer by boiling for 5 minutes before loading into SDS-PAGE. Western blotting analysis was performed by transferring the SDS gel onto a PVDF membrane and visualized using secondary antibodies conjugated to alkaline phosphatases.
Posttranslational modification by ubiquitin subjects proteins to proteasomal degradation and, therefore, affects their abundance. Because both acetylation and ubiquitination target lysine residues of proteins, there is a significant cross talk between these 2 pathways (Yang et al., 2008 Mol Cell, 31:449-461). […]

For another test, the system named is human ARG2 promoter. Put plainly: Human Arg2 promoter assay using luciferase activity in HAECs. Format: cell-based. Here is the method:
Chromosomal DNA was prepared from HAECs using Trizol reagent as per manufacturer's protocol (Life sciences). Promoter fragments of Arg2 were amplified by PCR using specific primer sets as follows.
PI Forward 5′-GGGCTCGAGTGAGGTGAAATAAATTTCAGGAGTTTA-3′ (SEQ ID NO: 24); Reverse 5′-GCCAAGCTTAGCCGGGAGTGAGCGCCACCGCCC-3′ (SEQ ID NO: 25), 1 Kb; PII Forward 5′-GGGCTCGAGATAACCAGCGCTCCCGTTATTCAG-3′ (SEQ ID NO: 26); Reverse 5′-GCCAAGCTTAGCCGGGAGTGAGCGCCACCGCCC-3′ (SEQ ID NO: 27), 0.3 Kb; PIII Forward 5′-GGGCTCGAGGTTCAGGAACCTGGCATGGGCCGG-3′ (SEQ ID NO: 28); Reverse 5′-GCCAAGCTTAGCCGGGAGTGAGCGCCACCGCCC-3′ (SEQ ID NO: 29), 0.65 Kb; PIV Forward 5′-GGGCTCGAGTGAGGTGAAATAAATTTCAGGAGTTTA-3′ (SEQ ID NO: 30); Reverse 5′-GCCAAGCTTCCGGCCCATGCCAGGTTCCTGAAC-3′ (SEQ ID NO: 31), 0.3 kb.
These were cloned into the restriction sites for XhoI and HindIII on the pGL3-enhancer vector (Promega Co.). HAECs were transfected with the plasmids using Fugene 6 reagent (Roche Co.) and luciferase activity was measured by Dual-luciferase reporter assay system (Promega Co.). The luciferase activity was reported as relative luciferase units by dividing firefly luciferase activity by Renilla luciferase activity.

A further test relates to NO production in HAECs. Put plainly: Nitric oxide production in HAECs (DAF-DA fluorescence, Siever's NO analyzer). The format is cell-based, human. To be noted: TSA 1 μmol/L. How it is done:
Nitric Oxide levels in HAEC were determined using DAF-DA as per manufacture instructions (Life Sciences). Briefly, cells were loaded with DAF-DA (5 μM) for 20 min and washed 3 times with PBS and incubated for another 30 min in phenol-free media. Fluorescence was determined using a Nikon TE-200 epifluorescence microscope. Images were captured with a Rolera EMC2 camera (Q-Imaging, BC, Canada) with Velocity software (PerkinElmer, Lexington, Mass.). NO production in the cell culture media was also determined by measuring Nitrite levels using a Siever's NO analyzer. NO radicals were measured in cell media collected after 24 hours of treatment using the Oxiselect assay (Cell Biolabs, San Diego, Calif.).

The test system of another test is HDAC. To be noted: cited from earlier work.
Another test has as its system SIRT. To be noted: cited from earlier work.

Regarding `CC(/C=C/C(=O)NO)=C\[C@@H](C)C(=O)c1ccc(N(C)C)cc1` [TSA, trichostatin A], in test [1] (30 minutes, nicotinamide 5 mmol/L, TSA 1 μmol/L), the “HAEC arginase activity, short-term” value was “no effect”. Moreover, in test [1] (TSA 400 nmol/L, 18 hours), the total arginase activity entry is “increased”. Besides, the “Arg2 mRNA” value in the test on Arg2 mRNA is reported as “substantially upregulated”. The “ubiquitination of Arg2” value in the test on Arg2 ubiquitination is recorded as “no effects”. Besides, the “Arg2 promoter activity (luciferase)” value in the test with human ARG2 promoter (TSA 1 μmol/L, 8 hours, versus vehicle) is listed as “increased”. Besides, the “Arg2 promoter activity, dose dependence” value with human ARG2 promoter (increasing doses of TSA) was “dose dependent”. In addition, the NO production result with NO production in HAECs is “significantly decreased”. Besides, the negative logarithm of the IC50 (pIC50) in the test on HDAC is 8.74. Besides, the “block of SIRT” value with SIRT is on record as “do not block”.
